Source: patent publication US20170073337A1, “DIHYDROTHIAZINE AND DIHYDROOXAZINE DERIVATIVES HAVING BACE1 INHIBITORY ACTIVITY” (Shionogi & Co., Ltd., priority 2014, published 2017)

Test: Pharmacokinetic study (oral absorption)
Assay type: in vivo
Settings: bioavailability from AUCs of oral and intravenous administration; mouse or rat
Description: (1l) Animal: mouse or rat (2) Breeding conditions: mouse or rat was allowed free access to the tap water and the solid food. (3) Dose and grouping: orally or intravenously administered at a predetermined dose: grouping was as follows (Dose depends on the compound) Oral administration: 1 to 30 mg/kg (n=2 to 3) Intravenous administration: 0.5 to 10 mg/kg (n=2 to 3) (4) Dosing formulation: for oral administration, in a solution or a suspension state; for intravenous administration, in a solubilized state (5) Dosing method: in oral administration, forcedly administer using a syringe attached a flexible feeding tube; in intravenous administration, administer from caudal vein using a syringe attached with a needle. (6) Evaluation items: blood was collected at the scheduled time, and the plasma concentration of the compound of the present invention was measured by LC/MS/MS (7) Statistical analysis: regarding the transition of the plasma concentration of the compound of the present invention, the area under the plasma concentration-time curve (AUC) was calculated by non-linear least squares program WinNonlin (Registered trademark), and the bioavailability (BA) of the compound of the present invention was calculated from the AUCs of the oral administration group and intravenous administration group

Structure (SMILES) | BA_%
C[C@H]1SC(N)=N[C@](C)(c2nc(NC(=O)c3ccc(C#N)cn3)ccc2F)[C@H]1F [Compound I-1] | 66.7%
C[C@H]1SC(N)=N[C@](C)(c2nc(NC(=O)c3ccc(F)cn3)ccc2F)[C@H]1F [Compound I-2] | 51.3%
C[C@H]1SC(N)=N[C@](C)(c2nc(NC(=O)c3cnc(OCF)cn3)ccc2F)[C@H]1F [Compound I-3] | 38.8%
C[C@]1(c2nc(NC(=O)c3ccc(C#N)cn3)ccc2F)N=C(N)S[C@H](CF)[C@@H]1F [Compound I-4] | 83.2%
C[C@@]1(c2cc(NC(=O)c3ccc(C#N)cn3)ccc2F)C[C@@](C)(C(F)(F)F)OC(N)=N1 [Compound I-7] | 32.8%
COc1cnc(C(=O)Nc2ccc(F)c([C@@]3(C)N=C(N)S[C@H](C)[C@@H]3F)c2)cn1 [Compound I-8] | 27.4%
C[C@]1(c2cc(NC(=O)c3ccc(C#N)cn3)ccc2F)N=C(N)O[C@H](CF)[C@@H]1OCC(F)(F)F [Compound I-10] | 46.3%
C[C@]1(c2cc(NC(=O)c3cnc(OCF)cn3)ccc2F)N=C(N)O[C@H](CF)[C@@H]1OCC(F)(F)F [Compound I-12] | 47.4%
C[C@H](F)[C@H]1OC(N)=N[C@](C)(c2cc(NC(=O)c3ccc(C#N)cn3)ccc2F)[C@H]1F [Compound I-13] | 47.3%
C[C@@H](F)[C@H]1OC(N)=N[C@](C)(c2cc(NC(=O)c3ccc(C#N)cn3)ccc2F)[C@H]1F [Compound I-15] | 37.4%
CO[C@H]1[C@@H](CF)OC(N)=N[C@]1(C)c1cc(NC(=O)c2cnc(OCF)cn2)ccc1Cl [Compound I-19] | 39.1%
CO[C@H]1[C@@H](CF)OC(N)=N[C@]1(C)c1cc(NC(=O)c2cnc(OCF)cn2)ccc1F [Compound I-24] | 44%
CC(F)(F)[C@H]1OC(N)=N[C@](C)(c2cc(NC(=O)c3ccc(C#N)cn3)ccc2F)[C@H]1F [Compound I-40] | 36.2%
C[C@H]1[C@@H](C(F)(F)F)OC(N)=N[C@]1(C)c1cc(NC(=O)c2cnc(OCF)cn2)ccc1F [Compound I-41] | 35.2%
COc1cnc(C(=O)Nc2ccc(F)c([C@@]3(C)N=C(N)O[C@H](C(C)(F)F)[C@@H]3F)c2)cn1 [Compound I-42] | 28.7%
C[C@H]1SC(N)=N[C@](C)(c2cc(NC(=O)c3cnc(OCC(F)(F)F)cn3)ccc2F)[C@H]1F [Compound I-46] | 22.2%
Cc1cc(C#N)cnc1C(=O)Nc1ccc(F)c([C@@]2(C)N=C(N)S[C@H](C)[C@@H]2F)c1 [Compound I-52] | 39.1%
C[C@H]1SC(N)=N[C@](C)(c2cc(NC(=O)c3ccc(F)cn3)ccc2F)[C@H]1F [Compound I-116] | 78.7%
